Experiments:
[1] = Pharmacokinetic evaluation after single oral administration to ICR mice; assay type: in vivo; settings: for half-life / AUC(0-t): mouse, ICR mice, single oral dose 5 mg/kg, plasma; for AUC(0-t): read-out: AUC0-24; for AUC compared to the corresponding compounds: 69, 70, 75, 78, 82 vs compounds 53 and 65
Procedure: Pharmacokinetic tests for the compounds of the present invention were conducted as below. After a single oral administration of the compound of the present invention to ICR mice, the concentration of the compound over time was followed up and analyzed.
The compound of the present invention was suspended in 10% DMSO/90% (30% HPbCD aqueous solution) and orally administered to mice at a dose of 5 mg/kg. Blood was collected at a fixed time and plasma was separated. Drug analysis was performed using HPLC (XBridge column C18, Waters, mobile phase 0.1% formic acid:acetonitrile (30:70, %/%)) and MS/MS (ESI positive, MRM). Mouse blood plasma and each commercially available standard solution were mixed at a ratio of 9:1 to prepare and calibrate at concentrations of […] 5,000 ng/mL. In addition, the preparation of QC samples was prepared by mixing the mouse blood plasma and the standard solution for QC at a ratio of 9:1, and prepared to be concentrations of 100, 750 and 2,500 ng/mL. 100 μL of the plasma sample was transferred to a centrifugation tube, and 10 μL of the internal standard solution and 300 μL of methanol were added, followed by mixing for about 30 seconds for pretreatment. The tube was centrifuged at 3,000×g (4° C.) for about 5 minutes, and the supernatant was taken and transferred to an LC vial and injected into the instrument. Then, the concentration of the compound in mouse plasma was quantified by applying a previously validated assay. For pharmacokinetic parameters, the program WinNonlin 5.2 (Pharsight, USA) was used. AUC0-t, AUC0-∞, Cmax, Tmax, and t1/2 were calculated by Noncompartment modeling (best fit). The pharmacokinetic parameter results were expressed as the mean (Mean) and standard deviation (SD), and were statistically processed using the SPSS program (Statistical Package for the Social Sciences, 10.0K, USA).

EGFR^L858R+T790M+C797S = target: T1, EGFR^L858R+T790M+C797S (Homo sapiens, UniProt P00533, C797S/L858R/T790M); experiment: EGFR protein degradation test (Western blot) in Ba/F3 cells expressing mutant EGFR L858R+T790M+C797S (LTC); assay type: cell-based; settings: compounds at 0.1 μM and 1 μM, 24 hours, Western blot with EGFR antibody
T1 construct: expressed in transfected cells; host or cells: Ba/F3
T1 sequence (P00533 25-1210 T790M/C797S/L858R): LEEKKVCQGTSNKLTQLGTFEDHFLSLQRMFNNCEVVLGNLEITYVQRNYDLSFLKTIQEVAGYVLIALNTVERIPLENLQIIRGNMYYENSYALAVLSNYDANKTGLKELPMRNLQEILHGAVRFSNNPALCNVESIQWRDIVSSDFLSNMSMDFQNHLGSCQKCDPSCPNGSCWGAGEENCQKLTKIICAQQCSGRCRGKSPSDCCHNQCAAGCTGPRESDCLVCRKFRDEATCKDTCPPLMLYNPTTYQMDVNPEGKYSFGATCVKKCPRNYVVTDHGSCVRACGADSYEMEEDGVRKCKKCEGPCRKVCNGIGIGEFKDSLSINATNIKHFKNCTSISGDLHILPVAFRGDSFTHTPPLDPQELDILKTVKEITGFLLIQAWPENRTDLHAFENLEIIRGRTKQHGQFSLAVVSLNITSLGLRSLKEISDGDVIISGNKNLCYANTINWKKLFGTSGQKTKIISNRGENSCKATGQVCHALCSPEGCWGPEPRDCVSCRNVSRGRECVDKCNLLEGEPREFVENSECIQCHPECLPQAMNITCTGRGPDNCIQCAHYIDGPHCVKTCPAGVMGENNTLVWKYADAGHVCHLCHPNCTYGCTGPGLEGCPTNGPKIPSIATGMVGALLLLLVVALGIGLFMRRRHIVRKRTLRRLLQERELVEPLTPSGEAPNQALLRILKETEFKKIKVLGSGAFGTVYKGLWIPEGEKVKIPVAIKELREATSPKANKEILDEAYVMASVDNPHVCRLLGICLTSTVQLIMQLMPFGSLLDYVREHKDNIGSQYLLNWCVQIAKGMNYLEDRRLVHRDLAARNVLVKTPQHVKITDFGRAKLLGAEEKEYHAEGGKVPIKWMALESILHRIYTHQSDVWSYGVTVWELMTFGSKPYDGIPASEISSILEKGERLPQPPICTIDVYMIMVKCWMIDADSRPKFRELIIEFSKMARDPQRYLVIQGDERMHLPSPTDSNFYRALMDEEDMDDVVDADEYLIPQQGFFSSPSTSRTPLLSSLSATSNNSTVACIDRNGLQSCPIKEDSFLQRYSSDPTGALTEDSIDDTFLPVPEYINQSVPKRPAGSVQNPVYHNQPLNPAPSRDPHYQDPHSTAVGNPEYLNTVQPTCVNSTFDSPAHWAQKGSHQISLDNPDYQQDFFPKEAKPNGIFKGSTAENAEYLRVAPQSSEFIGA
Summary of the method: (§1)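 Ba/F3 cells expressing wild-type EGFR, del19+T790M+C797S or L858R+T790M+C797S EGFR were treated with compound at 0.1 μM and 1 μM for 24 h. Lysates (30 μg) were analysed by SDS-PAGE and EGFR Western blot, with bands quantified densitometrically.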

EGFR^del19+T790M+C797S = experiment: EGFR protein degradation test (Western blot) in Ba/F3 cells expressing mutant EGFR del19+T790M+C797S (DTC); assay type: cell-based; settings: compounds at 0.1 μM and 1 μM, 24 hours, Western blot with EGFR antibody
Summary of the method: as §1

SMILES	half-life [1] [min]	AUC(0-t) [1] [ng·h/mL]	LTC (EGFR^L858R+T790M+C797S) protein degradation (EGFR^L858R+T790M+C797S)	DTC (EGFR^del19+T790M+C797S) protein degradation (EGFR^del19+T790M+C797S)	AUC compared to the corresponding compounds [1]
CN(c1ccccc1Nc1nc(Nc2ccc(N3CCN(CC4CCN(C(=O)COc5cccc6c5C(=O)N(C5CCC(=O)NC5=O)C6=O)CC4)CC3)c(F)c2)ncc1Cl)S(C)(=O)=O (stereo not drawn) [Compound 43, N-(2-((5-chloro-2-((4-(4-((1-(2-((2-(2,6-dioxopiperidin-3-yl)-1,3-dioxoisoindolin-4-yl)oxy)acetyl)piperidin-4-yl)methyl)piperazin-1-yl)-3-fluorophenyl)amino)pyrimidin-4-yl)amino)phenyl)-N-methylmethanesulfonamide]	304	346	++ (Protein degradation > 80%)	++ (Protein degradation > 80%)	
COc1cc(N2CCC(N3CCN(CCNc4cccc5c4C(=O)N(C4CCC(=O)NC4=O)C5=O)CC3)CC2)ccc1Nc1ncc(Cl)c(Nc2ccccc2N(C)S(C)(=O)=O)n1 (stereo not drawn) [Compound 45, N-(2-((5-chloro-2-((4-(4-(4-(2-((2-(2,6-dioxopiperidin-3-yl)-1,3-dioxoisoindolin-4-yl)amino)ethyl)piperazin-1-yl)piperidin-1-yl)-2-methoxyphenyl)amino)pyrimidin-4-yl)amino)phenyl)-N-methylmethanesulfonamide]	207	992	++ (Protein degradation > 80%)	++ (Protein degradation > 80%)	
COc1cc(N2CCC(N3CCN(CC(=O)Nc4ccc5c(c4)CN(C4CCC(=O)NC4=O)C5=O)CC3)CC2)ccc1Nc1ncc(Cl)c(Nc2ccccc2N(C)S(C)(=O)=O)n1 (stereo not drawn) [Compound 47, 2-(4-(1-(4-((5-chloro-4-((2-(N-methylmethylsulfonamido)phenyl)amino)pyrimidin-2-yl)amino)-3-methoxyphenyl)piperidin-4-yl)piperazin-1-yl)-N-(2-(2,6-dioxopiperidin-3-yl)-1-oxoisoindolin-5-yl)acetamide]	248	134	++ (Protein degradation > 80%)	++ (Protein degradation > 80%)	
COc1cc(N2CCC(N3CCN(CCC4CCN(c5ccc6c(c5)C(=O)N(C5CCC(=O)NC5=O)C6=O)CC4)CC3)CC2)ccc1Nc1ncc(Cl)c(Nc2ccccc2N(C)S(C)(=O)=O)n1 (stereo not drawn) [Compound 51, N-(2-((5-chloro-2-((4-(4-(4-(2-(1-(2-(2,6-dioxopiperidin-3-yl)-1,3-dioxoisoindolin-5-yl)piperidin-4-yl)ethyl)piperazin-1-yl)piperidin-1-yl)-2-methoxyphenyl)amino)pyrimidin-4-yl)amino)phenyl)-N-methylmethanesulfonamide]	169	635	++ (Protein degradation > 80%)	++ (Protein degradation > 80%)	
COc1cc(N2CCN(CC3CCN(C(=O)COc4cccc5c4C(=O)N(C4CCC(=O)NC4=O)C5=O)CC3)CC2)ccc1Nc1ncc(Cl)c(Nc2ccccc2N(C)S(C)(=O)=O)n1 (stereo not drawn) [Compound 53, N-(2-((5-chloro-2-((4-(4-((1-(2-((2-(2,6-dioxopiperidin-3-yl)-1,3-dioxoisoindolin-4-yl)oxy)acetyl)piperidin-4-yl)methyl)piperazin-1-yl)-2-methoxyphenyl)amino)pyrimidin-4-yl)amino)phenyl)-N-methylmethanesulfonamide]	219	44	++ (Protein degradation > 80%)	++ (Protein degradation > 80%)	
COc1cc(N2CCN(CC3CCN(C(=O)CCc4cccc5c4C(=O)N(C4CCC(=O)NC4=O)C5=O)CC3)CC2)ccc1Nc1ncc(Cl)c(Nc2ccccc2N(C)S(C)(=O)=O)n1 (stereo not drawn) [Compound 54, N-(2-((5-chloro-2-((4-(4-((1-(3-(2-(2,6-dioxopiperidin-3-yl)-1,3-dioxoisoindolin-4-yl)propanoyl)piperidin-4-yl)methyl)piperazin-1-yl)-2-methoxyphenyl)amino)pyrimidin-4-yl)amino)phenyl)-N-methylmethanesulfonamide]	367	840	++ (Protein degradation > 80%)	++ (Protein degradation > 80%)	
COc1cc(N2CCN(CC3CCN(C(=O)CNc4cccc5c4C(=O)N(C4CCC(=O)NC4=O)C5=O)CC3)CC2)ccc1Nc1ncc(Cl)c(Nc2ccccc2N(C)S(C)(=O)=O)n1 (stereo not drawn) [Compound 65, N-(2-((5-chloro-2-((4-(4-((1-((2-(2,6-dioxopiperidin-3-yl)-1,3-dioxoisoindolin-4-yl)glycyl)piperidin-4-yl)methyl)piperazin-1-yl)-2-methoxyphenyl)amino)pyrimidin-4-yl)amino)phenyl)-N-methylmethanesulfonamide]	241	607	++ (Protein degradation > 80%)	++ (Protein degradation > 80%)	
COc1cc(N2CCN(CC3CCN(C(=O)[C@@H](C)Oc4cccc5c4C(=O)N(C4CCC(=O)NC4=O)C5=O)CC3)CC2)ccc1Nc1ncc(Cl)c(Nc2ccccc2N(C)S(C)(=O)=O)n1 (stereo partly drawn) [Compound 69]	193	280	++ (Protein degradation > 80%)	++ (Protein degradation > 80%)	significantly improved AUC
COc1cc(N2CCN(CC3CCN(C(=O)[C@H](C)Nc4cccc5c4C(=O)N(C4CCC(=O)NC4=O)C5=O)CC3)CC2)ccc1Nc1ncc(Cl)c(Nc2ccccc2N(C)S(C)(=O)=O)n1 (stereo partly drawn) [Compound 70, N-(2-((5-chloro-2-((4-(4-((1-((2-(2,6-dioxopiperidin-3-yl)-1,3-dioxoisoindolin-4-yl)-L-alanyl)piperidin-4-yl)methyl)piperazin-1-yl)-2-methoxyphenyl)amino)pyrimidin-4-yl)amino)phenyl)-N-methylmethanesulfonamide]	184	598	++ (Protein degradation > 80%)	++ (Protein degradation > 80%)	significantly improved AUC
COc1cc(N2CCC(N3CCN(CC4CCN(c5ccc6c(c5)C(=O)N(C5CCC(=O)NC5=O)C6=O)CC4)CC3)CC2)ccc1Nc1ncc(Cl)c(Nc2ccccc2N(C)S(C)(=O)=O)n1 (stereo not drawn) [Compound 71, N-(2-((5-chloro-2-((4-(4-(4-((1-(2-(2,6-dioxopiperidin-3-yl)-1,3-dioxoisoindolin-5-yl)piperidin-4-yl)methyl)piperazin-1-yl)piperidin-1-yl)-2-methoxyphenyl)amino)pyrimidin-4-yl)amino)phenyl)-N-methylmethanesulfonamide]	466	1230	++ (Protein degradation > 80%)	+ (Protein degradation 20~80%)	

From patent US20230322723A1, “COMPOUNDS FOR SUPPRESSING EGFR MUTANT CANCER AND PHARMACEUTICAL USE THEREOF” (J2H BIOTECH INC., priority 2020, published 2023)
